The values that follow come from PMC5653977 (EMBO Molecular Medicine, 2017).

Several values for one entry are separate records, joined by “and”; a condition that tells them apart may be missing. Equal values may be shown once. Where a name gives a salt, the structure may show the parent alone.

The first experiment concerns NRG1-ERBB4 signaling. Description: Nrg1-ERBB4-PIK3R1 split TEV co-culture compound screen of the NIH Clinical Collection.
Details: not given
The experiment is classed as cell-based, human.
For `C[C@]12CC[C@H]3[C@@H](CCC4=CC(=O)CC[C@@]43C)[C@@H]1CC[C@@H]2O` [Testosterone, reference compound], the Z-SCORE was 0.79 and 0.91. On the same count and under the same terms, the value for `CN1C(=O)CN=C(c2ccccc2)c2cc(Cl)ccc21` [Diazepam] was -1.79.

Still in this experiment, the particulars now being: NIH Clinical Collection NCC-003 raw data; compounds ranked by Z-score; 'flagged' given instead of a Z-score.
On to `CC(NC(C)(C)C)C(=O)c1cccc(Cl)c1` (centres unmarked) [BUPROPION HYDROCHLORIDE], for which the Z-SCORE was -2.1. For the compound `Cc1c(OCC(F)(F)F)ccnc1C[S+]([O-])c1nc2ccccc2[nH]1` (centres unmarked) [LANSOPRAZOLE], the Z-SCORE is -1.16. On to `CSc1nc2cc(Cl)c(Oc3cccc(Cl)c3Cl)cc2[nH]1` [TRICLABENDAZOLE], for which the Z-SCORE is recorded as -1.39.

`Cl.O=C1[C@H]2CCCC[C@H]2C(=O)N1CCCCN1CCN(c2nsc3ccccc23)CC1` [PEROSPIRONE HCl] gave a Z-SCORE of -1.42.

The same experiment, now with this note: compound screen of the NIH Clinical Collection, sheet raw data NCC-003; compounds ranked by Z-score.
In the case of `COc1ccccc1N1CCN(CC(O)COc2cccc3ccccc23)CC1` (centres unmarked) [NAFTOPIDIL], the Z-SCORE worked out at 0.24. Same read-out and setting: the value for `Fc1ccc([C@@H]2CCNC[C@H]2COc2ccc3c(c2)OCO3)cc1` [Paroxetine, reference compound] was 2.09; that for `CC1CNc2c(cccc2S(=O)(=O)N[C@@H](CCCNC(=N)N)C(=O)N2CC[C@@H](C)C[C@@H]2C(=O)O)C1` (some centres unmarked) [ARGATROBAN] was -0.29; that for `CCN(CC)C(=O)C1(c2ccccc2)CC1CN` (centres unmarked) [Milnacipran] was 0.97. Still for that read-out and setting: the value for `CC(C)(C)NC(=O)[C@@H]1C[C@@H]2CCCC[C@@H]2CN1C[C@@H](O)[C@H](Cc1ccccc1)NC(=O)[C@H](CC(N)=O)NC(=O)c1ccc2ccccc2n1` [SAQUINAVIR MESYLATE] was -0.84; that for Benzeneacetic acid was -0.01. Still for that read-out and setting: the value for `CN1C2CCCC1CC(NC(=O)c1nn(C)c3ccccc13)C2` (centres unmarked) [GRANISETRON HCl] was 0.21; that for `C[C@@H](c1ncncc1F)[C@](O)(Cn1cncn1)c1ccc(F)cc1F` [VORICONAZOLE] was -0.06; that for `CN1C(C(=O)Nc2ccccn2)=C(O)c2ccccc2S1(=O)=O` [Piroxicam] was 0.27. `COc1ccc(CC2c3cc(OC)c(OC)cc3CC[N+]2(C)CCC(=O)OCCCCCOC(=O)CC[N+]2(C)CCc3cc(OC)c(OC)cc3C2Cc2ccc(OC)c(OC)c2)cc1OC` (centres unmarked) [ATRACURIUM BESYLATE] returned a Z-SCORE of -0.66. The same measure, in the same setting: the value for `O=C(NCCN1CCOCC1)c1ccc(Cl)cc1` was -0.92.

Compound `CCOC(=O)N1CCC(=C2c3ccc(Cl)cc3CCc3cccnc32)CC1` [LORATADINE] yielded a Z-SCORE of 0.21. The compound `C[C@H]1CCC[C@H](O)CCCCCc2cc(O)cc(O)c2C(=O)O1` [ZERANOL] had a Z-SCORE of -0.91. Take `CCN(C(C)=O)c1cccc(-c2ccnc3c(C#N)cnn23)c1` [Zaleplon]: the Z-SCORE is on record as -0.02. `CN(C)CC[C@@H](c1ccc(Br)cc1)c1ccccn1` [DEXBROMPHENIRAMINE MALEATE] registered a Z-SCORE of -0.74. Same read-out and setting: the value for `O=C(c1ccc(F)cc1)C1CCN(CCn2c(=S)[nH]c3ccccc3c2=O)CC1` [Altanserin] was 0.71. On the same count and under the same terms, the value for `CC(C)NCC(O)COc1ccc(CCOCC2CC2)cc1` (centres unmarked) [Betaxolol hydrochloride] was 1.56. Still for that read-out and setting: the value for `O=C(O)C(Cl)Cl` [DICHLOROACETIC ACID] was 1.9; that for `CNC1CC(c2ccc(Cl)c(Cl)c2)c2ccccc21` (centres unmarked) [Indatraline] was 0.28. Take `Nc1nc(=O)[nH]cc1F` [5-FLUOROCYTOSINE]: the Z-SCORE is listed as -0.59. `CCOC(=O)c1ncn2c1CN(C)C(=O)c1cc(F)ccc1-2` [FLUMAZENIL] yielded a Z-SCORE of 0.09.

For `CCCN1CCCC[C@H]1C(=O)Nc1c(C)cccc1C` [ROPIVACAINE HCl], the Z-SCORE was -0.05. `OC[C@H]1O[C@@H](n2cnc3c(N[C@H]4CCC[C@@H]4O)ncnc32)[C@H](O)[C@@H]1O` came in with a Z-SCORE of -0.71. With `CN1CCCCC1CCN1c2ccccc2Sc2ccc([S+](C)[O-])cc21` (centres unmarked) [Mesoridazine], the Z-SCORE was -0.53. Regarding `COc1cc(C)nc(-n2nc(C)cc2OC)n1` [MEPIRIZOLE], the Z-SCORE is 0.59. With `CCCCC1=NC2(CCCC2)C(=O)N1Cc1ccc(-c2ccccc2-c2nnn[nH]2)cc1` [Irbesartan, reference compound], the Z-SCORE was 4.26.

`NC(=O)OCC(COC(N)=O)c1ccccc1` [Felbamate] displayed a Z-SCORE of -0.25.

Still in this experiment, the particulars now being: compound screen of the NIH Clinical Collection, sheet raw data NCC-003; compounds ranked by Z-score; listed as PAROXETINE
`Fc1ccc([C@@H]2CCNC[C@H]2COc2ccc3c(c2)OCO3)cc1` [Paroxetine, reference compound]: the Z-SCORE was 1.3.

Staying with this experiment, now noted: compounds at 10 μM, 24 h; PC12 split TEV assay cells co-cultured with Nrg1-expressing PC12 cells; analysed with cellHTS2.
`C[C@H]1C[C@H]2[C@@H]3CCC4=CC(=O)C=C[C@]4(C)[C@@]3(F)[C@@H](O)C[C@]2(C)[C@@]1(O)C(=O)CO` [Betamethasone, reference compound] registered a Z-SCORE of 3.82.

Compound `Fc1ccc([C@@H]2CCNC[C@H]2COc2ccc3c(c2)OCO3)cc1` [Paroxetine, reference compound] came in with a Z-SCORE of -0.28. Take `CSc1ccc2c(c1)N(CCC1CCCCN1C)c1ccccc1S2` (centres unmarked) [THIORIDAZINE HYDROCHLORIDE, reference compound]: the Z-SCORE result is “flagged”.

As for `CC1(C)O[C@@H]2C[C@H]3[C@@H]4C[C@H](F)C5=CC(=O)C=C[C@]5(C)[C@H]4[C@@H](O)C[C@]3(C)[C@]2(C(=O)CO)O1` [FluniSOLIDe, reference compound], the Z-SCORE came to 2.03. `CC(=O)/N=c1/sc(S(N)(=O)=O)nn1C` [Methazolamide, reference compound] gave a Z-SCORE of 0.38. Still for that read-out and setting: the value for `S=c1[nH]cnc2nc[nH]c12` [Mercaptopurine, reference compound] was 0; that for `CN(C)C(=O)C(CCN1CCC(O)(c2ccc(Cl)cc2)CC1)(c1ccccc1)c1ccccc1` [Imodium, reference compound] was -0.18; that for `CN/C(=N/CCSCc1nc[nH]c1C)NC#N` [Cimetidine, reference compound] was -0.45. The same measure, in the same setting: the same measure for `Clc1ccc(COC(Cn2ccnc2)c2ccc(Cl)cc2Cl)c(Cl)c1` (centres unmarked) [MICONAZOLE NITRATE, reference compound]: -0.69; for `CC(C(=O)O)c1cccc(C(=O)c2ccccc2)c1` (centres unmarked) [KETOPROFEN, reference compound]: 0.15; for `CC1(C)S[C@@H]2[C@H](NC(=O)[C@H](N)c3ccccc3)C(=O)N2[C@H]1C(=O)O` [Ampicillin Sodium, reference compound]: -1.31. Same read-out and setting: the value for `NS(=O)(=O)c1cc2c(cc1C(F)(F)F)NCNS2(=O)=O` [HYDROFLUMETHIAZIDE, reference compound] was -0.47. For `CC1=C(CC(=O)O)c2cc(F)ccc2/C1=C\c1ccc([S+](C)[O-])cc1` (centres unmarked) [Sulindac, reference compound], the Z-SCORE was 1.51. In turn, `CN(C)CCCC1(c2ccc(F)cc2)OCc2cc(C#N)ccc21` (centres unmarked) [Citalopram, reference compound] showed a Z-SCORE of -1.5. Same read-out and setting: the same measure for `O=C(O)CCCc1ccc(N(CCCl)CCCl)cc1` [CHLORAMBUCIL, reference compound]: 0.14; for `Cc1ccc(N(CC2=NCCN2)c2cccc(O)c2)cc1` [PHENTOLAMINE HCL, reference compound]: -1.17.

`CCCCC1=NC2(CCCC2)C(=O)N1Cc1ccc(-c2ccccc2-c2nnn[nH]2)cc1` [Irbesartan, reference compound] returned a Z-SCORE of 4.26. In turn, `Cn1c(=O)c2[nH]cnc2n(C)c1=O` [Theophylline, reference compound] had a Z-SCORE of 2.57.

As for `CCC1(c2ccc(N)cc2)CCC(=O)NC1=O` (centres unmarked) [Aminoglutethimide, reference compound], the Z-SCORE is reported as -0.62.
